Assay results taken from patent US5470852A, “Tetrahydroprotoberberine quaternary ammonium compounds useful in for treating arrhythmia” (priority 1991, dated 1995).
Like-named read-outs stand apart in the source and are kept apart here.

Key:
[1] = test system: cardiovascular activities / arrhythmia; conditions: cited from earlier work; for cardiovascular activities: Fukuda H. et al
rabbits = assay: Electrically-induced ventricular fibrillation threshold (VFT) in rabbits; type: in vivo, rabbit
anaesthetized rats [2] = assay: animal or person; conditions: Rattus norvegicus
anaesthetized rats [3] = conditions: for Arrhythmic scores / Antiarrhythmic effect: X ± SD; for Incidence of VF: n=10; for Death / animals with VF / animals without VF: of n=10
dogs = assay: Ouabain-induced arrhythmia in dogs; type: in vivo, dog; conditions: for Incidence of arrhythmia: I13 iv 3 mg/kg, lidocaine iv 12 mg/kg
Protocol: (iv, 12 mg/kg) on ouabain induced arrhythmia in dogs
(Ouabain administration for 30 min)

[4] = test system: Langendorff's perfused rat hearts; assay: Lasting antiarrhythmic action after po administration, hearts removed and mounted on Langendorff's apparatus; type: in vivo; conditions: 10 mg/kg po at 1 hr before experiment (FIG. 4)
Protocol: 1, 3 and 6 hours after the administration of 100 mg/kg of I13 by p.o. to rats, the hearts were removed and mounted onto Langendorff's apparatus. […] (see FIG. 4)
FIG. 4. Influence of po I13 and mexiletine on the time course of reperfusion-induced arrhythmias in Langendorff's perfused rat hearts

In the case of `O=C(NCC1CCCCN1)c1cc(OCC(F)(F)F)ccc1OCC(F)(F)F` (stereo not shown) [Flecainide], the side effects [1] is given as “marked side effects of pulmonary fibrosis and thyroid function change” and the effect upon arrhythmia ([1]; clinical use) is given as “good effect upon arrhythmia”.
For `CCN(CC)CC(=O)Nc1c(C)cccc1C` [Lidocaine, reference compound], the “VFT Before” value (rabbits; baseline, iv 15 mg/kg group) was 5.6 ± 0.9 volt, the “VFT After” value (rabbits; iv 15 mg/kg) was 8.8 ± 1.6 volt and the ΔVFT (rabbits; iv 15 mg/kg) was 3.3 ± 0.9 volt. The ED50 (anaesthetized rats [2]; iv) was 2.23 mg/kg, the Arrhythmic scores (anaesthetized rats [3]; iv 1.0 mg/kg) was 5.3 ± 0.8 and the Antiarrhythmic effect (anaesthetized rats [3]; iv 1.0 mg/kg, coronary occlusion 5 min) was 1.0 ± 1.4. For the same compound, the Antiarrhythmic effect (anaesthetized rats [3]; iv 1.0 mg/kg, coronary occlusion 10 min) was 0.38 ± 0.23, the “Incidence of VF” value (anaesthetized rats [3]; iv 1.0 mg/kg) was 50% and the Death (anaesthetized rats [3]; iv 1.0 mg/kg) was 0. For the same compound, the “animals with VF” value (anaesthetized rats [3]; iv 1.0 mg/kg) was 3, the “animals without VF” value (anaesthetized rats [3]; iv 1.0 mg/kg) was 7 and the Antiarrhythmic effect (anaesthetized rats [3]; iv 1.0 mg/kg, reperfusion 0.17 min) was 3.6 ± 1.3. For the same compound, the Antiarrhythmic effect (anaesthetized rats [3]; iv 1.0 mg/kg, reperfusion 0.33 min) was 4.4 ± 1.5, the Antiarrhythmic effect (anaesthetized rats [3]; iv 1.0 mg/kg, reperfusion 0.5 min) was 5.3 ± 0.9 and the Antiarrhythmic effect (anaesthetized rats [3]; iv 1.0 mg/kg, reperfusion 1 min) was 2.1 ± 1.7. For the same compound, the Antiarrhythmic effect (anaesthetized rats [3]; iv 1.0 mg/kg, reperfusion 2 min) was 1.3 ± 1.0, the Antiarrhythmic effect (anaesthetized rats [3]; iv 1.0 mg/kg, reperfusion 3 min) was 0.6 ± 1.0 and the Antiarrhythmic effect (anaesthetized rats [3]; iv 1.0 mg/kg, reperfusion 5 min) was 0.2 ± 0.4. It also gave an Antiarrhythmic effect (anaesthetized rats [3]; iv 1.0 mg/kg, reperfusion 6 min) of 0.2 ± 0.4, an Antiarrhythmic effect (anaesthetized rats [3]; iv 1.0 mg/kg, reperfusion 7 min) of 0.2 ± 0.4 and an Antiarrhythmic effect (anaesthetized rats [3]; iv 1.0 mg/kg, reperfusion 10 min) of 0.2 ± 0.4. It also gave an Antiarrhythmic effect (anaesthetized rats [3]; iv 1.0 mg/kg, reperfusion 15 min) of 0.06 ± 0.2, an Antiarrhythmic effect (anaesthetized rats [3]; iv 1.0 mg/kg, reperfusion 25 min) of 0 and an Arrhythmic scores (anaesthetized rats [3]; iv 3.0 mg/kg) of 1.7 ± 1.8. The Antiarrhythmic effect (anaesthetized rats [3]; iv 3.0 mg/kg, coronary occlusion 5 min) was 0.2 ± 0.3, the Antiarrhythmic effect (anaesthetized rats [3]; iv 3.0 mg/kg, coronary occlusion 10 min) was 0.5 ± 0.6 and the “Incidence of VF” value (anaesthetized rats [3]; iv 3.0 mg/kg) was 0%. For the same compound, the Death (anaesthetized rats [3]; iv 3.0 mg/kg) was 0, the “animals with VF” value (anaesthetized rats [3]; iv 3.0 mg/kg) was 0 and the “animals without VF” value (anaesthetized rats [3]; iv 3.0 mg/kg) was 10. The Antiarrhythmic effect (anaesthetized rats [3]; iv 3.0 mg/kg, reperfusion 0.17 min) was 1.2 ± 1.4, the Antiarrhythmic effect (anaesthetized rats [3]; iv 3.0 mg/kg, reperfusion 0.33 min) was 1.7 ± 1.8 and the Antiarrhythmic effect (anaesthetized rats [3]; iv 3.0 mg/kg, reperfusion 0.5 min) was 1.1 ± 1.4. The Antiarrhythmic effect (anaesthetized rats [3]; iv 3.0 mg/kg, reperfusion 1 min) was 0.8 ± 1.3, the Antiarrhythmic effect (anaesthetized rats [3]; iv 3.0 mg/kg, reperfusion 2 min) was 0.4 ± 1.0 and the Antiarrhythmic effect (anaesthetized rats [3]; iv 3.0 mg/kg, reperfusion 3 min) was 0.3 ± 0.5. For the same compound, the Antiarrhythmic effect (anaesthetized rats [3]; iv 3.0 mg/kg, reperfusion 5 min) was 0.4 ± 0.7, the Antiarrhythmic effect (anaesthetized rats [3]; iv 3.0 mg/kg, reperfusion 6 min) was 0.3 ± 0.7 and the Antiarrhythmic effect (anaesthetized rats [3]; iv 3.0 mg/kg, reperfusion 7 min) was 0.2 ± 0.4. It also gave an Antiarrhythmic effect (anaesthetized rats [3]; iv 3.0 mg/kg, reperfusion 10 min) of 0.2 ± 0.3, an Antiarrhythmic effect (anaesthetized rats [3]; iv 3.0 mg/kg, reperfusion 15 min) of 0.1 ± 0.3 and an Antiarrhythmic effect (anaesthetized rats [3]; iv 3.0 mg/kg, reperfusion 25 min) of 0.1 ± 0.3. The Antiarrhythmic effect (anaesthetized rats [3]; po 10 mg/kg, coronary occlusion 5 min) was 0.5 ± 0.5, the Antiarrhythmic effect (anaesthetized rats [3]; po 10 mg/kg, coronary occlusion 10 min) was 0.40 ± 0.22 and the Antiarrhythmic effect (anaesthetized rats [3]; po 10 mg/kg, reperfusion 0.17 min) was 2.6 ± 1.6. For the same compound, the Antiarrhythmic effect (anaesthetized rats [3]; po 10 mg/kg, reperfusion 0.33 min) was 2.6 ± 1.8, the Antiarrhythmic effect (anaesthetized rats [3]; po 10 mg/kg, reperfusion 0.5 min) was 2.5 ± 2.3 and the Antiarrhythmic effect (anaesthetized rats [3]; po 10 mg/kg, reperfusion 1 min) was 2.2 ± 1.9. It also gave an Antiarrhythmic effect (anaesthetized rats [3]; po 10 mg/kg, reperfusion 1.5 min) of 2.4 ± 2.2, an Antiarrhythmic effect (anaesthetized rats [3]; po 10 mg/kg, reperfusion 3 min) of 1.5 ± 2.5 and an Antiarrhythmic effect (anaesthetized rats [3]; po 10 mg/kg, reperfusion 4 min) of 1.1 ± 1.9. The Antiarrhythmic effect (anaesthetized rats [3]; po 10 mg/kg, reperfusion 5 min) was 1.0 ± 1.9, the Antiarrhythmic effect (anaesthetized rats [3]; po 10 mg/kg, reperfusion 6 min) was 0.8 ± 1.6 and the Antiarrhythmic effect (anaesthetized rats [3]; po 10 mg/kg, reperfusion 7 min) was 1.3 ± 2.5. It also gave an Antiarrhythmic effect (anaesthetized rats [3]; po 10 mg/kg, reperfusion 15 min) of 1.4 ± 2.9, an Antiarrhythmic effect (anaesthetized rats [3]; po 10 mg/kg, reperfusion 25 min) of 1.4 ± 2.9 and an Antiarrhythmic effect (anaesthetized rats [3]; po 30 mg/kg, coronary occlusion 5 min) of 0.9 ± 0.7. It also gave an Antiarrhythmic effect (anaesthetized rats [3]; po 30 mg/kg, coronary occlusion 10 min) of 1.0 ± 0.9, an Antiarrhythmic effect (anaesthetized rats [3]; po 30 mg/kg, reperfusion 0.17 min) of 1.7 ± 1.5 and an Antiarrhythmic effect (anaesthetized rats [3]; po 30 mg/kg, reperfusion 0.33 min) of 1.8 ± 1.6. The Antiarrhythmic effect (anaesthetized rats [3]; po 30 mg/kg, reperfusion 0.5 min) was 1.0 ± 1.0, the Antiarrhythmic effect (anaesthetized rats [3]; po 30 mg/kg, reperfusion 1 min) was 0.6 ± 0.9 and the Antiarrhythmic effect (anaesthetized rats [3]; po 30 mg/kg, reperfusion 1.5 min) was 0.5 ± 0.6. The Antiarrhythmic effect (anaesthetized rats [3]; po 30 mg/kg, reperfusion 3 min) was 0.2 ± 0.2, the Antiarrhythmic effect (anaesthetized rats [3]; po 30 mg/kg, reperfusion 4 min) was 0.2 ± 0.2 and the Antiarrhythmic effect (anaesthetized rats [3]; po 30 mg/kg, reperfusion 5 min) was 0.2 ± 0.2. The Antiarrhythmic effect (anaesthetized rats [3]; po 30 mg/kg, reperfusion 6 min) was 0.2 ± 0.3, the Antiarrhythmic effect (anaesthetized rats [3]; po 30 mg/kg, reperfusion 7 min) was 0.2 ± 0.3 and the Antiarrhythmic effect (anaesthetized rats [3]; po 30 mg/kg, reperfusion 15 min) was 0.3 ± 0.3. The Antiarrhythmic effect (anaesthetized rats [3]; po 30 mg/kg, reperfusion 25 min) was 0.2 ± 0.3, the Incidence of arrhythmia (dogs; 0 min (before administration)) was 97 ± 8% and the Incidence of arrhythmia (dogs; 5 min) was 83 ± 41%. For the same compound, the Incidence of arrhythmia (dogs; 10 min) was 74 ± 42%, the Incidence of arrhythmia (dogs; 15 min) was 55 ± 46% and the Incidence of arrhythmia (dogs; 20 min) was 42 ± 45%. For the same compound, the Incidence of arrhythmia (dogs; 25 min) was 16 ± 24%, the Incidence of arrhythmia (dogs; 30 min) was 10 ± 17% and the Incidence of arrhythmia (dogs; 35 min) was 8 ± 10%. For the same compound, the Incidence of arrhythmia (dogs; 40 min) was 28 ± 25%, the Incidence of arrhythmia (dogs; 45 min) was 10 ± 14% and the Incidence of arrhythmia (dogs; 50 min) was 8 ± 15%. For the same compound, the Incidence of arrhythmia (dogs; 60 min) was 10 ± 21%, the reoccurrence of arrhythmia (dogs; within 4 hour period) was “reoccurrences of VPBs, VT and VF have been detected” and the oral administration ([1]; clinical use) was “can not be administered orally”. For the same compound, the “prevention of ventricular fibrillation” value ([1]; clinical use) was “can not effectively prevent ventricular fibrillation” and the suppression of arrhythmia ([1]; clinical use) was “can effectively suppress arrhythmia”.
For `COc1ccc2cc3[n+](cc2c1OC)CCc1cc2c(cc1-3)OCO2` [berberine], the cardiovascular activities [1] is given as “highly potent cardiovascular activities”.
In the case of `COc1ccc2cc3[n+](cc2c1O)CCc1cc2c(cc1-3)OCO2` [berberubine], the cardiovascular activities [1] is given as “highly potent cardiovascular activities”.
Compound `Cc1cccc(C)c1OCC(C)N` (stereo not shown) [mexiletine, reference compound] has a ke [4] of 0.075.
In the case of `COc1cc2c(cc1OC)-c1cc3ccc(OC)c(OC)c3c[n+]1CC2` [palmatine], the cardiovascular activities [1] is listed as “highly potent cardiovascular activities”.
In the case of `CCCNCC(O)COc1ccccc1C(=O)CCc1ccccc1` (stereo not shown) [propafenon, reference compound], the ED50 (anaesthetized rats [2]; po) is reported as 19.3 mg/kg, the Arrhythmic scores (anaesthetized rats [3]; po 10 mg/kg) is reported as 2.6 ± 1.6 and the “Incidence of VF” value (anaesthetized rats [3]; po 10 mg/kg) is reported as 20%. For the same compound, the Death (anaesthetized rats [3]; po 10 mg/kg) was 2, the “animals with VF” value (anaesthetized rats [3]; po 10 mg/kg) was 1 and the “animals without VF” value (anaesthetized rats [3]; po 10 mg/kg) was 7. The Arrhythmic scores (anaesthetized rats [3]; po 30 mg/kg) was 1.8 ± 1.6, the “Incidence of VF” value (anaesthetized rats [3]; po 30 mg/kg) was 0% and the Death (anaesthetized rats [3]; po 30 mg/kg) was 0. The “animals with VF” value (anaesthetized rats [3]; po 30 mg/kg) was 0 and the “animals without VF” value (anaesthetized rats [3]; po 30 mg/kg) was 10.
